One experiment has as its system MDA-MB-231 cells. As to the kind of experiment: Anti-proliferative activity, MDA-MB-231 breast carcinoma cells (Coulter counting). To be noted: Homo sapiens, MDA-MB-231, 72 h; mean ± SD of three independent experiments; 3 days of incubation; read-out: Tumor cells IC50 MDA-MB-231. Format: cell-based. From the text: (§1) The anti-proliferative activity of the synthesized benzofurane derivatives was studied in three human cancer cell lines [breast carcinoma (MDA-MB-231), lymphoblastic leukemia (CEM) and cervical carcinoma (HeLa) cells] and one endothelial cell line [human microvascular endothelial cells (HMEC-1)].
(§2) The human microvascular endothelial cell line HMEC-1 was obtained at passage 12 from the Centers for Disease Control and Prevention (Atlanta, GA, USA) and used from passage 17 till 27. Human breast carcinoma (MDA-MB-231), human cervical carcinoma (HeLa) and human T-lymphoid (CEM) cells were obtained from ATCC (Middlesex, UK). Cell lines were maintained in culture for up to 3 months and grown in DMEM, supplemented with 10% FBS, 0.01 M Hepes and 1 mM sodium pyruvate. All cells were cultured in a humidified 5% CO2 incubator at 37 °C.
(§3) HMEC-1 cells were seeded in 48-well plates at 20,000 cells/well. After 24 h, 5-fold dilutions of the compounds were added. The cells were allowed to proliferate 4 days in the presence of the compounds, trypsinized, and counted by means of a Coulter counter (Analis, Belgium). HeLa and MDA-MB-231 cells were seeded in 48-well plates at 10,000 cells/well. After 24 h, different concentrations of the compounds were added. After 3 days of incubation, the cells were trypsinized and counted in a Coulter counter. Suspension cells (human lymphoid Cem cells) were seeded in 96-well plates at 60,000 cells/well in the presence of different concentrations of the compounds, allowed to proliferate for 96 h, and counted in a Coulter counter. The 50% inhibitory concentration (IC50) was defined as the compound concentration required to reduce cell proliferation by 50%.

For a further experiment, the system named is CEM cells. Briefly: Anti-proliferative activity, CEM lymphoblastic leukemia cells (Coulter counting). It is filed as cell-based. As to conditions: Homo sapiens, CCRF-CEM; mean ± SD of three independent experiments; 96 h; read-out: Tumor cells IC50 CEM.
From the text: as §1, §2, §3

The next experiment has as its system HeLa cells. Briefly: Anti-proliferative activity, HeLa cervical carcinoma cells (Coulter counting). To be noted: Homo sapiens, 72 h, mean ± SD of three independent experiments, 3 days of incubation, read-out: Tumor cells IC50 HeLa. It is filed as cell-based.
From the text: as §1, §2, §3

The test system of a further experiment is HMEC-1 cells. Briefly: Anti-proliferative activity, HMEC-1 microvascular endothelial cells (Coulter counting). It is filed as cell-based. As to conditions: Homo sapiens, HMEC-1, 96 h; mean ± SD of three independent experiments; 4 days; read-out: Endothelial cells IC50 HMEC-1.
From the text: as §1, §2, §3

The next experiment deals with A2780 cells. As to the kind of experiment: Anti-proliferative activity, A2780 ovarian carcinoma cells. It is filed as cell-based, human. As to conditions: Homo sapiens, A2780; mean ± standard error of three independent experiments. From the text:
One of the most relevant causes of tumor resistance to chemotherapy is the overexpression of membrane pumps which remove the chemotherapeutic agents from the treated cells.

For experiment [1], the system named is MDA-MB-231, CEM, HeLa and HMEC-1 cells. As to the kind of experiment: Anti-proliferative activity, summary over tumor and endothelial cell lines. Format: cell-based. To be noted: Homo sapiens. On the procedure:
as §1, §3

The mark [2] stands for this setting: Endothelial cell, range stated in the conclusions, read-out: IC50 (antiproliferative activity against tumor and endothelial cells).
Where [3] appears, read: range over tumor and endothelial cell lines, read-out: IC50 values ranging (antiproliferative, all cell lines of Table 1).

Where two headings read alike, the source gives them in different places.

In general, IC50 refers to the concentration that inhibits the measured activity by half. Regarding `COCc1cc2cccc(NC(C)=C3C(=O)CC(c4ccccc4)CC3=O)c2o1` (centres unmarked) [Compound 27, 2-(1-((2-(Methoxymethyl)benzofuran-7-yl)amino)ethylidene)-5-phenylcyclohexane-1,3-dione], the IC50 in the experiment with MDA-MB-231 cells is 9 ± 1 nM; in the experiment on CEM cells, 31 ± 2 nM; with HeLa cells it was 30 ± 2 nM; with HMEC-1 cells, 16 ± 2 nM; in the experiment with A2780 cells, 23 ± 2 nM; in experiment [1] (setting [2]), 8 to 31 nM. In experiment [1] (setting [3]), the IC50 was in the range of 9 to 51 nM.

`CC(Nc1cccc2cc(COCCCO)oc12)=C1C(=O)CC(c2ccccc2)CC1=O` (centres unmarked) [Compound 28, 2-(1-((2-((3-Hydroxypropoxy)methyl)benzofuran-7-yl)amino)ethylidene)-5-phenylcyclohexane-1,3-dione]: the IC50 in the experiment on MDA-MB-231 cells was 12 ± 5 nM; with CEM cells, 51 ± 18 nM; in the experiment on HeLa cells it was 34 ± 3 nM; in the experiment with HMEC-1 cells, 38 ± 3 nM; in the experiment on A2780 cells it was 38 ± 7 nM; in experiment [1] (setting [2]) it was 8 to 31 nM. Moreover, the IC50 in experiment [1] (setting [3]) is 9 to 51 nM.

Values taken from PMC5844890 (Scientific Reports, 2018).
